{"source": "patent US20260048046A1", "about": "“METHOD FOR IMPROVING GROWTH PERFORMANCE IN FEEDLOT CATTLE” (Elanco US Inc., priority 2022, published 2026)", "origin": "cited, not measured here", "tested_on": "cattle", "details": "zilpaterol 8.3 mg/kg diet DM, Holland et al. (2010), cited from earlier work", "note": "Where two headings read alike, the source gives them in different places.", "data": [{"smiles": "CC(C)NC1CCn2c(=O)[nH]c3cccc(c32)C1O", "note": "(centres unmarked) [zilpaterol]", "values": [{"measurement": "Difference in HCW between zilpaterol fed and non-treated cattle", "setting": "3 d removal prior to harvest", "value": 14, "unit": "kg"}, {"measurement": "Difference in HCW between zilpaterol fed and non-treated cattle", "setting": "10 d removal prior to harvest", "value": 17, "unit": "kg"}, {"measurement": "Difference in HCW between zilpaterol fed and non-treated cattle", "setting": "17 d removal prior to harvest", "value": 5, "unit": "kg"}, {"measurement": "Difference in HCW between zilpaterol fed and non-treated cattle", "setting": "24 d removal prior to harvest", "value": 6, "unit": "kg"}, {"measurement": "Final and carcass-adjusted final BW, effect of feeding zilpaterol", "setting": "P≥0.14", "value": "not affected"}]}]}
